US12692270B2, “Crystal form of casein kinase 1ϵ inhibitor and preparation method and use thereof” (HANGZHOU HEALZEN THERAPEUTICS CO., LTD., priority 2020, dated 2026)
Read-outs that look alike come from different tables or passages of the source.

Key:
[1] = Pharmacokinetic test in rats in vivo, plasma concentration after oral administration; conditions: for Cmax: 10 mg/kg, intragastric, suspension in sodium carboxymethyl cellulose solution
Method: (§1) Experimental method: SD rats were used as experimental animals and intragastrically administrated with a milky white suspension prepared from a sodium carboxymethyl cellulose solution at a dose of 10 mg/kg. After the intragastric administration, blood was collected at the time points of 0.17, 0.33, 0.5, 1, 1.5, 2, 4, 6, 8, 12 and 24 h. 0.3 ml of whole blood was taken and subjected to centrifugation, and then 0.1 ml of plasma was taken and analyzed by LC-MS.

[2] = Equilibrium solubility of crystal forms in purified water (HPLC); assay type: physicochemical; conditions: for Water solubility: saturated (equilibrium) solubility in purified water, room temperature, HPLC, methanesulfonate; for Solubility in water (in words): summary of Table 8
Excerpt: Preparation of a standard curve: Appropriate amounts of a series of compounds were accurately weighed, placed in volumetric flasks, and dissolved and diluted with an appropriate amount of acetonitrile to a certain scale to serve as stock solutions. Appropriate amounts of the stock solutions were accurately weighed, placed in volumetric flasks, diluted with a mobile phase to a certain scale, and uniformly shaken to obtain a series of high-concentration standard solutions and low-concentration standard solutions. The standard solutions were separately sampled in the sequence from low concentration to high concentration, and peak areas were recorded. Linear regression was conducted with the compound concentration as the abscissa and the peak area as the ordinate to obtain a linear regression equation of a compound, namely, a standard curve of the solubility of the compound as shown in the formula (I).
Determination of equilibrium solubility: An excess amount of a compound was placed in a 10 mL plugged EP tube, 2 mL of purified water was added, and the compound was subjected to ultrasonic treatment at room temperature for 15 min, followed by standing for 20 min. The above operations were repeated for 4 times, centrifugation was conducted at 3,000 r/min for 10 min, and a supernatant was taken (after the supernatant was properly diluted with a solvent) and filtered through a microporous filtration membrane. A filtrate was taken for HPLC detection, and the peak area was recorded and substituted into the standard curve to calculate the saturated solubility of each compound in water.

[3] = Pharmacokinetic test in dogs in vivo, plasma concentration after oral administration; conditions: Beagles
Method: as §1, with “Beagles” for “SD rats”, “0,” for “0.17, 0.33,”, “1,” for “1, 1.5,”, “2, 3,” for “2,”, “8” for “8, 12”

[4] = SD, rat, plasma, po, mean n=3, read-out: Cmax
[5] = SD rats, mean n=3, methanesulfonate

| Structure (SMILES) | Water solubility [2] | Solubility in water (in words) [2] | further results |
| --- | --- | --- | --- |
| COc1ccc(-c2nn([C@@H](C)c3nc4cccc(Cl)c4c(=O)n3-c3ccccc3)c3ncnc(N)c23)c(F)c1F [(S)-2-(1-(4-amino-3-(2,3-difluoro-4-methoxyphenyl)-1H-pyrazolo[3,4-d]pyrimidin-1-yl)ethyl)-5-chloro-3-phenylquinazoline-4(3H)-one] |  |  | Cmax [1, 4]: 456 ng/mL |
| COc1ccc(-c2nn([C@@H](C)c3nc4cccc(Cl)c4c(=O)n3-c3ccccc3)c3ncnc(N)c23)c(F)c1F.CS(=O)(=O)O [Crystal form A, (S)-2-(1-(4-amino-3-(2,3-difluoro-4-methoxyphenyl)-1H-pyrazolo[3,4-d]pyrimidin-1-yl)ethyl)-5-chloro-3-phenylquinazoline-4(3H)one methanesulfonate] | <1.0 µg/mL | soluble in water |  |
| COc1ccc(-c2nn([C@@H](C)c3nc4cccc(Cl)c4c(=O)n3-c3ccccc3)c3ncnc(N)c23)c(F)c1F.CS(=O)(=O)O [Crystal form B, (S)-2-(1-(4-amino-3-(2,3-difluoro-4-methoxyphenyl)-1H-pyrazolo[3,4-d]pyrimidin-1-yl)ethyl)-5-chloro-3-phenylquinazoline-4(3H)one methanesulfonate] | 2.50 µg/mL | soluble in water |  |
| COc1ccc(-c2nn([C@@H](C)c3nc4cccc(Cl)c4c(=O)n3-c3ccccc3)c3ncnc(N)c23)c(F)c1F.CS(=O)(=O)O [Crystal form C, (S)-2-(1-(4-amino-3-(2,3-difluoro-4-methoxyphenyl)-1H-pyrazolo[3,4-d]pyrimidin-1-yl)ethyl)-5-chloro-3-phenylquinazoline-4(3H)one methanesulfonate] | 3.84 µg/mL | soluble in water | Cmax [1, 4]: 1640 ng/mL |
| COc1ccc(-c2nn([C@@H](C)c3nc4cccc(Cl)c4c(=O)n3-c3ccccc3)c3ncnc(N)c23)c(F)c1F.CS(=O)(=O)O [compound as shown in the formula (I), (S)-2-(1-(4-amino-3-(2,3-difluoro-4-methoxyphenyl)-1H-pyrazolo[3,4-d]pyrimidin-1-yl)ethyl)-5-chloro-3-phenylquinazoline-4(3H)one methanesulfonate] |  |  | Pharmacokinetic properties compared with the free alkali (in words) ([3]; oral 10 mg/kg, crystal form F investigated): significantly improved; Pharmacokinetic properties compared with the free alkali (in words) ([1]; SD rats, oral 10 mg/kg, crystal forms C, D and F investigated): significantly improved |

Further lines, with some results ahead:

| Water solubility [2] | Solubility in water (in words) [2] | Structure (SMILES) | further results |
| --- | --- | --- | --- |
| 4.60 µg/mL | soluble in water | COc1ccc(-c2nn([C@@H](C)c3nc4cccc(Cl)c4c(=O)n3-c3ccccc3)c3ncnc(N)c23)c(F)c1F.CS(=O)(=O)O [Crystal form D, (S)-2-(1-(4-amino-3-(2,3-difluoro-4-methoxyphenyl)-1H-pyrazolo[3,4-d]pyrimidin-1-yl)ethyl)-5-chloro-3-phenylquinazoline-4(3H)one methanesulfonate] | Cmax [1, 5]: 1866.0 ng/mL |
| 1.25 µg/mL | soluble in water | COc1ccc(-c2nn([C@@H](C)c3nc4cccc(Cl)c4c(=O)n3-c3ccccc3)c3ncnc(N)c23)c(F)c1F.CS(=O)(=O)O [Crystal form E, (S)-2-(1-(4-amino-3-(2,3-difluoro-4-methoxyphenyl)-1H-pyrazolo[3,4-d]pyrimidin-1-yl)ethyl)-5-chloro-3-phenylquinazoline-4(3H)one methanesulfonate] |  |
| 24.80 µg/mL | soluble in water | COc1ccc(-c2nn([C@@H](C)c3nc4cccc(Cl)c4c(=O)n3-c3ccccc3)c3ncnc(N)c23)c(F)c1F.CS(=O)(=O)O [Crystal form F, (S)-2-(1-(4-amino-3-(2,3-difluoro-4-methoxyphenyl)-1H-pyrazolo[3,4-d]pyrimidin-1-yl)ethyl)-5-chloro-3-phenylquinazoline-4(3H)one methanesulfonate] | AUC ([3]; beagle, dog, plasma, po, intragastric, 10 mg/kg, suspension in sodium carboxymethyl cellulose solution, mean n=2, NA = value lower than the lower detection limit): 3820 ng·h/mL; Cmax [1, 5]: 2855.31 ng/mL |
